Values of other authors as cited in patent publication US12116550B2, “Process of making a liquid conditioning composition” (The Procter & Gamble Company, priority 2020, dated 2024).

Details: nonionic surfactants of Table A, value reported for the trade product

Row | Substance | Reported HLB
1 | Sorbitan isostearate [Span 120] | 4.7
2 | Sorbitan monostearate [Span 60] | 4.7
3 | Sorbitan monooleate [Span 80] | 4.3
4 | Sorbitan monopalmitate [Span 40] | 6.7
